Source: patent US8668925B2, “Transdermal delivery of hormones without the need of penetration enhancers” (Bayer Intellectual Property GmbH, priority 2003, dated 2014)

Assays:
[1] = cited from earlier work
[2] = Serum pharmacokinetics of Ethinylestradiol and Gestodene during two patch treatment cycles; set-up: species or system women; conditions: female, human, in vivo, topical or ocular, 0.9 mg, AUC(0-[…]) of ethinyl estradiol (EE), mean
Description: Arcare MA-24A® is a polyisobutylene based adhesive from Adhesive Research.
The treatment phase includes a period of two menstrual cycles. The first treatment in the first cycle began one day after the volunteers started menstruating in this cycle by application of a patch. A total of three test patches were applied in intervals of 7 days between, such as application at days 1, 8 and 15 of the first cycle—each at different application sites—during each treatment cycle. Each patch was worn for 7 days, then replaced with a new patch to complete a total of 21 days of continuous use. This was followed by a 7-day treatment-free interval before the next treatment period started with a total of three patches applied, each applied with an interval of 7 days. If the patches were lost or became more than 40% detached, a new patch was applied.
The AUC was calculated according to the linear trapezoidal rule.
The sampling points were at the day 18 of the last pre-treatment cycle and days 1, 2, 3, 4, 5, 6, 7, 8, 15, 16, 17, 18, 19, 20, 21 and 22 of cycle 1 as well as days 1 (before application of new patch), 2, 3, 4, 5, 6, 7, 8, 15, 16, 17, 18, 19, 20, 21 and 22 of cycle 2.
After incubation and centrifugation, the resultant precipitate was redissolved with NaOH. The assay has a lower limit of quantification of approx. 250 μg/ml.

Row | Compound | Maximal plasma levels ([1]; U.S. Pat. No. 5,376,377, ethylene vinyl acrylate adhesive layer, Gestodene and ethinylestradiol) | maximal plasma levels of Gestodene ([1]; WO 92/07590, transdermal compositions with penetration enhancers) | AUC(0-t) ([2]; Cycle 1, Week 1, test patch) [ng·h/mL] | AUC(0-t) ([2]; Cycle 1, Week 3, test patch) [ng·h/mL] | AUC(0-t) ([2]; Cycle 2, Week 1, test patch) [ng·h/mL] | AUC(0-t) ([2]; Cycle 2, Week 3, test patch) [ng·h/mL]
1 | C#C[C@]1(O)C=C[C@H]2[C@@H]3CCC4=CC(=O)CC[C@@H]4[C@H]3CC[C@@]21CC [Gestodene, 13β-Ethyl-17α-ethynyl-17β-hydroxy-4,15-gonadien-3-one] | about 0.8 ng/ml | about 0.9 ng/ml | – | – | – | –
2 | C#C[C@]1(O)CC[C@H]2[C@@H]3CCc4cc(O)ccc4[C@H]3CC[C@@]21C [ethinyl estradiol, Ethinylestradiol] | – | – | 5.3 | 6.1 | 5.1 | 5.8
